Measured values reported in article PMC9775191, “A Subset Screen of the Compounds Australia Scaffold Library Identifies 7-Acylaminodibenzoxazepinones as Potent and Selective Hits for Anti-Giardia Drug Discovery” (Biomedicines, 2022).

Test system: G. duodenalis BRIS/91/HEPU/1279
Assay: Primary Giardia screen at 10 µM (live-cell imaging, automated counting)
Assay type: cell-based, Giardia duodenalis
Details: for % Inhibition n=1 48h / % Inhibition n=1 24h: first singlicate assay; for % Inhibition n=2 24h / % Inhibition n=2 48h: re-assessment
Procedure: Each compound was assessed in singlicate, at a final concentration of 10 μM (0.4 μL of a 5 mM stock; diluted to a final volume of 200 μL in culture medium; 0.2% DMSO). […] Plates were incubated in sealed chambers filled with 3% O2, 5% CO2 in N2 and growth was assessed at 24 and 48 h using live cell imaging and automated counting as previously described. Growth inhibition was calculated by subtracting media only background counts and determining percentage growth relative to vehicle (0.2% DMSO) controls. The reliability of these assays was assessed by calculating Z’ factors for each plate as previously described.

| SMILES | % Inhibition n=1 48h [%] | other results |
| --- | --- | --- |
| CS(=O)(=O)N1CCCc2cc(-c3csc(N)n3)ccc21 [SN00777047] | 7.2 |  |
| C=CCn1c(SCC(=O)N2CCCCC2)nc2scc(-c3ccco3)c2c1=O [SN00773666] | 5.6 |  |
| COCCCN1C(=O)CSc2c(c(C)nn2-c2ccccc2)C1C(=O)NCc1ccccc1OC (stereo not drawn) [SN00791374] | 0.0 |  |
| COC(=O)CNC(=O)c1cn(-c2ccc(C(F)(F)F)cn2)nn1 [SN00771716] | 0.0 |  |
| Cc1cc(C)n2nc(C(=O)N3CCCC(n4cncn4)C3)nc2n1 (stereo not drawn) [SN00775270] | 8.1 |  |
| COc1ccc(Cn2c(=O)c3nccnc3n(Cc3cccc(C)c3)c2=O)cc1 [SN00789526] | 0.0 |  |
| CC(C)CCNC(=O)C1(C)CCC(=O)N1CCCN1CCN(c2cccc(Cl)c2)CC1 (stereo not drawn) [SN00784585] | 25.4 |  |
| CN(CCc1ccccn1)C(=O)c1cc2nc(-c3ccc(Cl)cc3)cc(C(F)(F)F)n2n1 [SN00784121] | 0.0 |  |
| CC(=O)N1N=C2C3CCN(CC3)[C@@H]2[C@@H]1c1cccc2ccccc12 (relative stereo) [SN00783777] | 0.0 |  |
| Cc1nn(C)c(C)c1CC(C)NC(=O)NCC1CN2CCCC2CO1 (stereo not drawn) [SN00783221] | 15.6 |  |
| CCCNC(=O)c1cncc(-c2cccc(NC(=O)CC)c2)c1 [SN00799189] | 0.0 |  |
| O=C(NCC1CN2CCCC2CO1)c1ccccc1-n1cnnn1 (stereo not drawn) [SN00781319] | 0.0 |  |
| Cc1oc2ncn(C(C)c3ccccc3)c(=O)c2c1C(=O)Nc1ccc(S(N)(=O)=O)nc1 (stereo not drawn) [SN00788415] | 0.0 |  |
| CCc1ccc(CNC(=O)c2c[nH]nc2-c2ccc(Cl)cc2)cc1 [SN00791699] | 7.3 |  |
| O=C(Nc1ccc2c(c1)OCO2)C1CCN(Cc2nnnn2-c2ccccc2)CC1 [SN00776590] | 4.9 |  |
| CCCn1c(=O)c2c(nc3n2CCN3c2ccc(CC)cc2)n(C)c1=O [SN00779194] | 0.0 |  |
| CCOC(=O)c1ccccc1NC(=O)N1Cc2c(sc3c2CCN(C)C3)-n2cccc2C1CC (stereo not drawn) [SN00791557] | 10.1 |  |
| COc1ccc(C2NC(=O)NC(C)=C2C(=O)c2ccccc2)cc1 (stereo not drawn) [SN00802824] | 12.9 |  |
| Cc1cccc(-c2noc(C3CCCN3S(=O)(=O)c3cc(C)c(C)cc3C)n2)c1 (stereo not drawn) [SN00797488] | 0.0 |  |
| O=C(Nc1ccc(N2CCn3c(nc4cc(Cl)ccc43)C2)cc1)NC1CCCCC1 [SN00786562] | 10.0 |  |
| CC(=O)c1c(C)[nH]c(C(=O)Nc2nc(-c3ccco3)c(-c3ccco3)s2)c1C [SN00769770] | 59.6 | Average % Inhibition 24h: 25.0%; % Inhibition n=1 24h: 21.9%; % Inhibition n=2 24h: 28.1%; Average % Inhibition 48h: 52.7%; % Inhibition n=2 48h: 45.9% |
| CN(C)C1(CNC(=O)COc2ccc(Br)cc2)CCCCC1 [SN00786247] | 5.1 |  |
| C=CCNC(=O)CCN1CCN(Cc2ccccc2)C1=O [SN00791850] | 0.0 |  |
| CC(C)(C)c1cc2nc(-c3ccccc3)cc(C(=O)NC3CCCCNC3=O)n2n1 (stereo not drawn) [SN00802787] | 0.0 |  |
| CCC1c2cccn2-c2ccccc2CN1C(=O)NCCc1ccccc1 (stereo not drawn) [SN00791262] | 18.8 |  |

| SMILES | % Inhibition n=1 48h [%] | other results |
| --- | --- | --- |
| Cc1cc2nc(Sc3nnnn3CC3CCCO3)c3ccccc3n2n1 (stereo not drawn) [SN00771233] | 16.5 |  |
| Cc1cc(N2CCC(C(=O)N3CCN(c4ccc(F)cc4)CC3)CC2)n2nc(-c3ccccc3)cc2n1 [SN00795072] | 0.0 |  |
| CN(C)c1nc(N(C)C)nc(N2CC(=O)N(c3ccc(Cl)c(Cl)c3)C2=N)n1 [SN00783378] | 16.0 |  |
| Cc1cccc2c1NC1(CCN(S(=O)(=O)c3ccc(C(C)(C)C)cc3)CC1)NC2=O [SN00802737] | 13.3 |  |
| CCCCN(CC)CCNC(=O)C1=C(C)C(=O)OC12CCN(CC)CC2 [SN00787839] | 0.0 |  |
| COc1ccc(CN2CCC3(CC2)N=C(c2ccc(C)cc2)C(=O)N3)cc1 [SN00792212] | 16.2 |  |
| COc1ccc2c(c1)NC1(CCN(C(=O)Cc3ccc(F)cc3)CC1)c1cccn1-2 [SN00789241] | 5.9 |  |
| Cc1nc(-c2ccccc2)c(C(=O)N2CCCN(S(=O)(=O)c3ccc(F)cc3)CC2)s1 [SN00778504] | 9.7 |  |
| Cc1ccc(Cl)cc1-n1ncc2c(NCCO)ncnc21 [SN00794417] | 8.1 |  |
| Cc1cc(C2CCCN(C(=O)CCc3cnn(C)c3)C2)n[nH]1 (stereo not drawn) [SN00782611] | 7.8 |  |
| CCOC(=O)c1sc2nc(CN3CCCCC3)nc(NCCC(=O)OC)c2c1C [SN00775388] | 0.0 |  |
| CCCNC(=O)c1cnn2c(C(F)F)cc(-c3ccc(C)cc3)nc12 [SN00783826] | 40.8 |  |
| Cc1ccc(-n2nc(N3CCC(C(=O)NCC4CCCO4)CC3)ccc2=O)cc1Cl (stereo not drawn) [SN00790174] | 0.0 |  |
| CC(=O)Oc1ccc(C(=O)Nc2ccc3nc(-c4ccc(Cl)cc4)oc3c2)cc1 [SN00783571] | 0.0 |  |
| Cc1ccccc1Nc1nc(N)nc(CN2C(=O)NC(C)(c3cccc4ccccc34)C2=O)n1 (stereo not drawn) [SN00773551] | 21.3 |  |
| COc1ccc(-n2nnnc2C2(N3CCOCC3)CCCCC2)cc1 [SN00794159] | 0.0 |  |
| Cc1ccc2c(c1)N=C(c1ccc(C)o1)N=C(c1cccs1)N2 [SN00785905] | 69.6 | Average % Inhibition 24h: 15.2%; % Inhibition n=1 24h: 22.4%; % Inhibition n=2 24h: 8.0%; Average % Inhibition 48h: 54.6%; % Inhibition n=2 48h: 39.6% |
| Cc1cc(=O)n2nc(N(C)CC(=O)NC3CCCc4ccccc43)sc2n1 (stereo not drawn) [SN00785631] | 35.0 |  |
| CCc1ccc(-n2c(CN3CCN(S(C)(=O)=O)CC3)nc3cccnc32)cc1 [SN00796120] | 7.0 |  |
| CC(C)c1ccc(S(=O)(=O)N2CCN(c3cc(=O)n4nc(-c5ccccc5)sc4n3)CC2)cc1 [SN00789595] | 0.0 |  |
| CN1CCN(CC2CCN(C(=O)Cc3cccc4ccccc34)CC2)CC1 [SN00783181] | 17.7 |  |
| Cc1ccc(C(=O)N2CCCN(S(C)(=O)=O)CC2)c(=O)[nH]1 [SN00807837] | 19.8 |  |
| Cc1nc(C)c2c(n1)N(CCN(C)C1CCCCC1)C(=O)CC2 [SN00802202] | 0.0 |  |
| CCCN1C(=O)c2c(C(=O)NCCc3ccccc3)ncn2CC1(C)C(=O)NCCC(C)C (stereo not drawn) [SN00791583] | 9.0 |  |
| O=C(c1cccc(Br)c1)N1CCC(c2nc3ccccc3[nH]2)CC1 [SN00786922] | 0.0 |  |

| SMILES | % Inhibition n=1 48h [%] | other results |
| --- | --- | --- |
| O=C(N1CCC(CCOCc2cccc(F)c2)CC1)C1(c2ccccc2)CC1 [SN00799224] | 0.0 |  |
| CCCS(=O)(=O)c1nc2ccc(NS(=O)(=O)CCc3ccccc3)cc2s1 [SN00797950] | 20.2 |  |
| CC(=O)c1cc2c(cc1NC(=O)c1cn(-c3ccc(F)cc3)nn1)OCO2 [SN00786071] | 7.4 |  |
| CCc1ccc(C2=Nc3ncnn3/C2=N/Cc2ccc(F)cc2)cc1 [SN00793051] | 1.3 |  |
| Cc1cccc(N(C)c2ccc3cc(S(=O)(=O)N4CCCC4)ccc3n2)c1 [SN00788730] | 7.2 |  |
| COc1cc(NC(=O)C2CCCN(c3nc4ccccc4[nH]c3=O)C2)cc(OC)c1 (stereo not drawn) [SN00790089] | 0.0 |  |
| O=C(NCCSc1ccc(Cl)cc1)c1cc(S(=O)(=O)N2CCOCC2)c[nH]1 [SN00777799] | 7.9 |  |
| COc1ccc(CNC(=O)N2CCC(c3ccn4ncc(C(=O)N5CCOCC5)c4c3)CC2)cc1 [SN00803088] | 0.7 |  |
| Cc1cc(C(=O)N2CCCN(c3cccnn3)CC2)c(C)n1C(C)C [SN00771426] | 0.0 |  |
| NC(=O)C1=C(Nc2ccccc2)c2ccccc2S1(=O)=O [SN00786825] | 65.7 | Average % Inhibition 24h: 12.8%; % Inhibition n=1 24h: 25.7%; % Inhibition n=2 24h: 0.0%; Average % Inhibition 48h: 48.5%; % Inhibition n=2 48h: 31.3% |
| Cn1cnc2cc(-c3noc(C4CCCO4)n3)ccc21 (stereo not drawn) [SN00793699] | 22.8 |  |
| COc1ccc(-c2noc(CC(=O)N3CCN(c4ccccn4)CC3)n2)cc1 [SN00787724] | 23.4 |  |
| CCc1onc(C)c1C1CCCN1C(=O)c1ccc2c(c1)OCO2 (stereo not drawn) [SN00793852] | 6.6 |  |
| Cc1ccc(C2(C)NC(=O)N(Cc3ncc(-c4ccccc4)o3)C2=O)cc1 (stereo not drawn) [SN00774002] | 0.0 |  |
| CC1CCc2nn(CC(=O)NC(C)c3ccccc3)cc2C1 (stereo not drawn) [SN00785614] | 0.0 |  |
| O=S(=O)(c1ccc(-c2cnc(C3CCC3)o2)s1)N1CCC2(CC1)OCCO2 [SN00795093] | 7.0 |  |
| Cc1nc(C2CCN(C(=O)Nc3ccccc3)CC2)sc1C(=O)N1CCCCCC1 [SN00798241] | 0.0 |  |
| Cc1sc(=O)n(CCC(=O)N2CCC(C)CC2c2ccco2)c1C (stereo not drawn) [SN00783298] | 0.0 |  |
| Cc1ccc(CNC(=O)C2CCN(c3ncccc3-n3cccc3)CC2)cc1 [SN00790865] | 0.0 |  |
| COC(=O)c1cc(C(=O)Nc2c3c(nn2C)CCC3)cc([N+](=O)[O-])c1 [SN00777586] | 12.1 |  |
| Cc1ccc(S(=O)(=O)N2CCN(C)c3ccccc32)cc1 [SN00795395] | 8.6 |  |
| CCN1c2cc(Cl)ccc2C(=O)NC12CCN(C(=O)Nc1ccc3c(c1)OCO3)CC2 [SN00800192] | 8.9 |  |
| COc1ccc(N2C(=O)NC3CC2(C)Oc2ccc(OC)cc23)cc1 (stereo not drawn) [SN00784647] | 11.2 |  |
| CN1CCCc2cc(C(=O)NCc3cccs3)sc21 [SN00799810] | 0.0 |  |
| Cc1cccc(NC(=O)Nc2cc(F)c3[nH]c(=O)ccc3c2)c1C [SN00795412] | 0.0 |  |
